According to US5716971A, “Pyridine derivatives, their production and use” (Takeda Chemical Industries, Ltd., priority 1993, dated 1998):
Where two headings read alike, the source gives them in different places.

Legend:
specimen of rat aorta [1] = assay: Vasorelaxation activity in a specimen of rat aorta: contraction caused by TEA and BaCl2; details: TEA (30-45 mM) and BaCl2 (0.3 mM) contraction, read-out: constriction inhibitory ratio
Procedure: Vasorelaxation activity in a specimen of rat aorta Effects on contraction caused by tetraethylammonium chloride (TEA) and barium chloride (BaCl2)
(§1) Male Wister rats (10 to 13 week old were employed for the experiment. After dehematization, the aorta was excised and a ring specimen (5 mm length) was prepared. The specimen was suspended in a bath filled with oxygenated (95% O2 -5%CO2) Krebs solution (36° C.). The ring specimen was fixed at one end and the other end was connected to a transducer (Nippon Koden) for recording tension to determine the tension. After a stabilization period of one hour, TEA (30-45 mM) and BaCl2 (0.3 mM) were added to the bath to cause vasoconstriction. After the constriction had reached a steady state (after about 15 minutes), a test compound was added to the bath and its relaxation activity was measured.

[2] = system: Spontaneously hypertensive rats; assay: Hypotensive activity in rats (Tail Cuff Method), oral; assay type: in vivo; details: Rattus norvegicus, 1 mg/kg, SHR
Procedure: Hypotensive activity in rats (Tail Cuff Method)
Spontaneously hypertensive rats (SHR, male, 20 to 23 week old) were warmed up to 36° C. The blood pressure at the tail aorta was measured by the tail cuff method. The blood pressure was measured three times, i.e. before oral administration of the test compound, two hours after the administration and five hours after the administration. The test compound was orally administered in the state of a suspension in gum arabic.
Maximal, hypotensive effect against the blood pressure before the administration is shown as % pre. in Table 66. As a result, it is apparent that the compounds of this invention show hypotensive activity.

specimen of rat aorta [3] = assay: Vasorelaxation activity in a specimen of rat aorta: contraction caused by KCl; details: read-out: constriction inhibitory ratio
Procedure: as §1
Vasorelaxation activity in a specimen of rat aorta Effects on contraction caused by potassium chloride (KCl)
The same experiment was conducted as in Experiment 1, excepting the use of KCl ([…]) instead of TEA and BaCl2

[4] = after 2 hours, read-out: Maximal hypotensive effect against blood pressure before administration (% pre.), after 2 hours
[5] = after 5 hours, read-out: Maximal hypotensive effect against blood pressure before administration (% pre.), after 5 hours

Row | Compound | inhibition at 1 µM (specimen of rat aorta [1]) | inhibition in vivo at 1 mg/kg [2, 4] | inhibition in vivo at 1 mg/kg [2, 5] | inhibition at 1 µM (specimen of rat aorta [3]) | inhibition at 3 µM (specimen of rat aorta [1]) | inhibition at 10 µM (specimen of rat aorta [1]) | inhibition at 3 µM (specimen of rat aorta [3]) | inhibition at 10 µM (specimen of rat aorta [3])
1 | CC(C)(C)O/N=C(/c1cc(Br)c(F)cc1O)c1c(O)ccc[n+]1[O-] [Compound 69, (Z)-2-(5-bromo-4-fluoro-2-hydroxybenzoyl)-3-hydroxypyridine N-oxide O-t-butyloxime] | 100% | 26% | 19% | 0% | – | – | – | –
2 | CC(C)(C)O/N=C(/c1cc(Cl)ccc1O)c1c(O)ccc[n+]1[O-] [Compound 123] | – | 37% | 12% | – | 52% | 91% | 0% | 0%
3 | CC(C)(C)O/N=C(/c1ccc(F)cc1O)c1ncccc1O [Compound 30, (Z)-2-(4-fluoro-2-hydroxybenzoyl)-3-hydroxypyridine O-t-butyloxime] | 4% | – | – | – | 50% | 92% | 1% | 18%
4 | CC(C)(C)O/N=C(/c1cc([N+](=O)[O-])ccc1O)c1c(O)ccc[n+]1[O-] [Compound 64, (Z)-2-(2-hydroxy-5-nitrobenzoyl)-3-hydroxypyridine N-oxide O-t-butyloxime] | – | – | – | – | 43% | 100% | 0% | 4%
5 | Cc1cc(O)c(/C(=N/OC(C)(C)C)c2c(O)ccc[n+]2[O-])cc1C [Compound 125, (Z)-2-(2-hydroxy-4,5-dimethyl-benzoyl)-3-hydroxy pyridine N-oxide O-t-butyloxime] | – | – | – | – | 25% | 78% | 1% | 8%
6 | Cc1cc(/C(=N/OC(C)(C)C)c2ncccc2O)c(O)cc1F [Compound 111, (Z)-2-(4-fluoro-2-hydroxy-5-methylbenzoyl)-3-hydroxy pyridine O-t-butyloxime] | 81% | – | – | 0% | 92% | – | 0% | –
7 | CC(C)O/N=C(/c1cc(Br)ccc1O)c1ncccc1O [Compound 19, (Z)-2-(5-bromo-2-hydroxybenzoyl)-3-hydroxypyridine O-i-propyloxime] | 58% | – | – | -5% | 95% | – | 6% | –
8 | CC(C)(C)O/N=C(/c1cc(Cl)ccc1O)c1ncccc1Cl [Compound 147, (Z)-2-(5-chloro-2-hydroxybenzoyl)-3-chloro pyridine O-t-butyloxime] | 100% | – | – | 16% | – | – | – | –
9 | Cc1cc(O)c(/C(=N/OC(C)(C)C)c2ncccc2O)cc1C [Compound 106, (Z)-2-(2-hydroxy-4,5-dimethylbenzoyl)-3-hydroxy pyridine O-t-butyloxime] | 2% | – | – | 0% | 56% | 100% | 5% | 39%
10 | Cc1cc(O)c(/C(=N/OC(C)(C)C)c2ncccc2O)cc1F [Compound 114, (Z)-2-(5-fluoro-2-hydroxy-4-methylbenzoyl)-3-hydroxy pyridine O-t-butyloxime] | 65% | – | – | 0% | 89% | – | 0% | –
11 | CCCCO/N=C(/c1cc(Br)ccc1O)c1ncccc1O [Compound 18] | – | – | – | – | 41% | 63% | – | –
12 | CC(C)(C)O/N=C(/c1cc(Br)c(Cl)cc1O)c1c(O)ccc[n+]1[O-] [Compound 119, (Z)-2-(5-bromo-4-chloro-2-hydroxybenzoyl)-3-hydroxypyridine N-oxide O-t-butyloxime] | 69% | 48% | 29% | 5% | 71% | – | 6% | –
13 | CC(C)(C)O/N=C(/c1cc(C(F)(F)F)ccc1O)c1ncccc1O [Compound 4, (Z)-2-(5-trifluoromethyl-2-hydroxybenzoyl)-3-hydroxypyridine O-t-butyloxime] | 38% | – | – | -2% | 79% | – | 7% | –
14 | CC(C)(C)O/N=C(/c1cc(C=O)ccc1O)c1ncccc1O [Compound 117] | 10% | – | – | 4% | 52% | 99% | 12% | 32%
15 | CC(C)(C)O/N=C(/c1cc(Br)c(F)cc1O)c1ncccc1O [Compound 68, (Z)-2-(5-bromo-4-fluoro-2-hydroxybenzoyl)-3-hydroxypyridine O-t-butyloxime] | 92% | – | – | 4% | – | – | – | –
16 | CC(C)(C)O/N=C(/c1cc(F)ccc1O)c1ncccc1O [Compound 8, (Z)-2-(5-fluoro-2-hydroxybenzoyl)-3-hydroxypyridine O-t-butyloxime] | 16% | – | – | -9% | 93% | – | -2% | –
17 | COc1cc(O)c(/C(=N/OC(C)(C)C)c2c(O)ccc[n+]2[O-])cc1Br [Compound 121, (Z)-2-(5-bromo-2-hydroxy-4-methoxybenzoyl)-3-hydroxy pyridine N-oxide O-t-butyloxime] | 3% | – | – | – | 57% | 82% | 0% | 0%
18 | CC(C)(C)O/N=C(/c1cc(Cl)c(Cl)cc1O)c1c(O)ccc[n+]1[O-] [Compound 122, (Z)-2-(4,5-dichloro-2-hydroxybenzoyl)-3-hydroxypyridine N-oxide O-t-butyloxime] | 100% | 30% | 24% | 0% | – | – | – | –
19 | Cc1cc(O)c(/C(=N/OC(C)(C)C)c2c(O)ccc[n+]2[O-])cc1F [Compound 127, (Z)-2-(5-fluoro-2-hydroxy-4-methylbenzoyl)-3-hydroxy pyridine N-oxide O-t-butyloxime] | 8% | – | – | – | 85% | 100% | 0% | 0%
20 | CCOc1cc(O)c(/C(=N/OC(C)(C)C)c2ncccc2O)cc1Cl [Compound 160] | 100% | – | – | 18% | – | – | – | –
21 | CC(C)(C)O/N=C(/c1cc(Br)ccc1O)c1cccc[n+]1[O-] [Compound 89, (Z)-2-(5-bromo-2-hydroxybenzoyl)pyridine N-oxide O-t-butyloxime] | – | – | – | – | 55% | 85% | 11% | 32%
22 | CC(C)(C)O/N=C(/c1cc(C#N)ccc1O)c1ncccc1O [Compound 9, (Z)-2-(5-cyano-2-hydroxybenzoyl)-3-hydroxypyridine O-t-butyloxime] | – | – | – | – | 22% | 82% | 0% | 10%
